Source: PMC8381248 (Frontiers in Pharmacology, 2021)
Where “and” joins values, the source holds several entries; their conditions need not be identical. Equal entries are not always repeated. Where two headings read alike, the source gives them in different places.

How the values were obtained:
in vitro [1] = conditions: microsomes
Method: Then, this incubation plate containing mixed solution and NADPH regeneration system was agitated on a plate shaker at 100 rpm and pre-incubated at 37°C for 5 min. Subsequently, 300 μL of precooled quenching solution was added to each well of another deep-well plate (quench plate), which was cooled on ice. The solution in the incubation plate was transferred into the well of the quench plate as the samples in 0 min before it was mixed with another 20 µL of NADPH regeneration solution in the wells.
The incubation plate was incubated at 37°C for 0, 10, 30, and 90 min. At each time point, 100 μL of the supernatant in the incubation plate was removed from each well, quenched immediately, transferred to the wells of the ice-cold quench plate, and vortexed for 5 min. Additionally, an equal volume of pre-warmed fresh regeneration solution was added to the incubation plate for compensation after every withdrawal. […] Each test was operated in duplicate. The determination conditions of LC-MS/MS are shown in Support Materials (Supplementary Table S4).
The in vitro T1/2 was determined by converting the analyte/IS peak area ratios to percentage of drug remaining using the initial peak (t = 0 min) area ratio values as 100%.

[2] = Kinetic solubility test in PBS; assay type: physicochemical; conditions: phosphate-buffer saline (PBS)
Method: Internal standard (IS) solutions (propranolol and tolbutamide) were dissolved by acetonitrile (50 ng/ml propranolol + 200 ng/ml tolbutamide).
The sample solutions were analyzed using LC-MS/MS. All the samples (test samples and references) for detection were prepared in duplicate. The conditions for LC-MS/MS are shown in Support Materials (Supplementary Table S1).

in vitro [3] = conditions: PAMPA
Method: Verapamil and digoxin solutions, used as reference, prepared in the same manner as the test drugs. Tolbutamide dissolved with acetonitrile (200 ng/ml) was used as IS.
The resultant supernatants were determined by LC-MS/MS. The specific assay conditions are shown in Support Materials (Supplementary Table S2).

[4] = Pharmacokinetic study in rat plasma after intravenous and oral administration; assay type: in vivo, Sprague-Dawley (SD) rats; conditions: for Cmax / AUC(0-t) / Tmax / AUC(0-inf) / MRT inf / Cl_pred / HL_Lambda_z / Vz_pred: rat plasma; for AUC(0-inf): read-out: AUCINF_pred; for MRT inf: read-out: MRTINF_pred
Method: Eighteen male SD rats were housed in the barrier rodent facilities to acclimatize for a week in animal quarters, which had air conditioning and an automatically controlled photoperiod of 12 h of light daily. Rats had free access to standard chow diet and water until 12 h prior to the beginning of the experiment, at which time only water was accessed freely. The rats were randomly divided into six groups, with three rats in each group.
A series of calibration standard working solutions (20.0, 10.0, 2.0, 1.0, 0.2, 0.04, and 0.02 μg/ml) was prepared freshly by diluting the stock solution stepwise using ACN-water (70:30, v/v). […] The IS working solutions of 200 ng/ml of tolbutamide or 50 ng/ml of diclofenac sodium were prepared by dilution of the stock standard solution with acetonitrile solution. All the solutions were stored at 4°C and brought to room temperature before use.
QC samples (3, 40, 800, and 1,600 ng/ml) were prepared separately. For PDG urine samples, the calibration standards were prepared by spiking 5 μL of the appropriate standard working solutions of PDG to 95 μL blank rat urine to prepare the final urine concentration of PDG ranging from 1 ng/ml to 2000 ng/ml. QC samples (3, 40, 800, and 1,600 ng/ml) were prepared separately. […] QC samples (15, 30, 400, and 1,600 ng/ml) were prepared separately.
Blood samples were collected via orbital venous plexus puncture into heparinized microfuge tubes at intervals of 0, 0.083, 0.25, 0.5, 1, 2, 4, 8, 10, 24, and 30 h after administration. The plasma samples were obtained by centrifuging the blood samples at 6,000 rpm for 10 min at 4°C and storing them at −20°C until further analysis. For the plasma calibration standards, QC plasma samples, and the testing plasma samples, 40 µL of the plasma samples were extracted with 120 µL of IS working solution (tolbutamide) by vortex mixing for 1 min and at 4°C centrifugation for 10 min at 13,000 rpm. The supernatant was separated and evaporated under a gentle stream of nitrogen. The residue was reconstituted with 120 µL of 30% ACN followed by vortex mixing. Then, the solutions were centrifuged at 13,000 rpm for 10 min at 4°C.
Linear gradient elution was performed with certain portions of 10 mM ammonium acetate-water solution containing 0.1% formic acid (mobile phase A) and methanol (mobile phase B). The detailed conditions have been described in Support Materials (Supplementary Table S5).
In the ADME properties and pharmacokinetics studies, data are presented as mean ± standard deviation (SD). Statistically significant differences were analyzed by one-way ANOVA or Student’s t-test. The level of significance was set at p < 0.05. The LC/MS/MS data were collected and analyzed by Analyst 1.6.1 (AB Sciex). Pharmacokinetic analyses were performed by non-compartmental methods using Phoenix WinNolin version 6.3 (Pharsight Corporation, Mountain View, CA, United States).

[5] = male, Sprague-Dawley, IV 5 mg/kg, n = 3
[6] = male, Sprague-Dawley, PO 40 mg/kg, n = 3

`COc1cc(C2OCC3C(c4ccc(OC5OC(CO)C(O)C(O)C5O)c(OC)c4)OCC23)ccc1OC1OC(CO)C(O)C(O)C1O` (single isomer, unassigned; (+)) [PDG, (+)-1-pinoresinol 4,4′-di-O-β-D-glucopyranoside] showed a half-life (in vitro [1]; human) of 16.7 h, a half-life at 5 µM (in vitro [1]; human) of 16.7 h and a microsomal CLint (in vitro [1]; human) of 1.4 µL/min/mg. The half-life (in vitro [1]; rat) was 17.3 h, the half-life at 5 µM (in vitro [1]; rat) was 17.3 h and the microsomal CLint (in vitro [1]; rat) was 1.3 µL/min/mg. For the same compound, the solubility kinetic ([2]; aqueous buffer, kinetic from dmso stock, PBS (100 mM, pH 7.4)) was 99.5 ± 14 µg/mL, the solubility kinetic ([2]; aqueous buffer, kinetic from dmso stock, PBS (pH 7.4), μg/ml value expressed in µM) was ~146 µM and the solubility kinetic ([2]; PBS (pH 7.4), μg/ml value expressed in µM) was > 100 µM. The Papp at 18000 s (in vitro [3]) was 0.002 ×10⁻⁶ cm/s, the Peff (in vitro [3]; 18000 s) was 0.02 cm/s, ×10^–7 and the bioavailability ([4]; male, Sprague-Dawley, plasma, rat, from AUClast of IV 5 mg/kg and PO 40 mg/kg, read-out: absolute oral bioavailability (F%)) was ~0.19%. The Cmax ([4]; male, Sprague-Dawley, rat, plasma, iv, 5 mg/kg, IV 5 mg/kg, n = 3, read-out: Cmax) was 13300 ng/mL, the Cmax ([4]; male, Sprague-Dawley, rat, plasma, iv, 5 mg/kg, IV 5 mg/kg, ng/ml value expressed in molar units, read-out: Cmax) was 19.6 µM and the Cmax ([4]; male, Sprague-Dawley, rat, plasma, po, 40 mg/kg, PO 40 mg/kg, n = 3, read-out: Cmax) was 45.3 ± 37.5 ng/mL. For the same compound, the Cmax ([4]; male, Sprague-Dawley, rat, plasma, po, 40 mg/kg, PO 40 mg/kg, ng/ml value expressed in molar units, read-out: Cmax) was 0.0665 µM, the AUC(0-t) [4, 5] was 7470 ng·h/mL and the Tmax [4, 5] was 0.1 h. For the same compound, the AUC(0-inf) [4, 5] was 7470 ng·h/mL, the MRT inf [4, 5] was 0.51 ± 0.09 h and the AUC(0-t) [4, 6] was 113 ± 122 ng·h/mL. It also gave a Tmax [4, 6] of 0.5 h, an AUC(0-inf) [4, 6] of 121 ± 129 ng·h/mL and an MRT inf [4, 6] of 1.9 ± 0.95 h. For the same compound, the Cl_pred ([4]; IV 5 mg/kg, n = 3) was 0.69 ± 0.15 L/h/kg, the HL_Lambda_z ([4]; IV 5 mg/kg, n = 3) was 2.0 ± 0.5 h and the Vz_pred ([4]; IV 5 mg/kg, n = 3) was 1.98 ± 0.43 L/kg. For the same compound, the Cmax ([4]; IV 5 mg/kg, n = 3, 5 mg/kg) was 13,328.57 ± 1,625.4 ng/ml, the Cl_pred ([4]; PO 40 mg/kg, n = 3) was 653.9 ± 492.6 L/h/kg and the Vz_pred ([4]; PO 40 mg/kg, n = 3) was 777.0 ± 392.4 L/kg. For the same compound, the HL_Lambda_z ([4]; PO 40 mg/kg, n = 3, 40 mg/kg) was 1.15 h and 1.15 ± 0.75 h.
